Values quoted from earlier work as cited in patent US6972176B2, “KVLQT1—a long QT syndrome gene” (University of Utah Research Foundation, priority 1995, dated 2005).

Target: T1, IKs in isolated myocytes (Cavia porcellus, UniProt O70344)
T1 construct: host or cells: isolated cardiac myocytes
T1 sequence (O70344 1-671): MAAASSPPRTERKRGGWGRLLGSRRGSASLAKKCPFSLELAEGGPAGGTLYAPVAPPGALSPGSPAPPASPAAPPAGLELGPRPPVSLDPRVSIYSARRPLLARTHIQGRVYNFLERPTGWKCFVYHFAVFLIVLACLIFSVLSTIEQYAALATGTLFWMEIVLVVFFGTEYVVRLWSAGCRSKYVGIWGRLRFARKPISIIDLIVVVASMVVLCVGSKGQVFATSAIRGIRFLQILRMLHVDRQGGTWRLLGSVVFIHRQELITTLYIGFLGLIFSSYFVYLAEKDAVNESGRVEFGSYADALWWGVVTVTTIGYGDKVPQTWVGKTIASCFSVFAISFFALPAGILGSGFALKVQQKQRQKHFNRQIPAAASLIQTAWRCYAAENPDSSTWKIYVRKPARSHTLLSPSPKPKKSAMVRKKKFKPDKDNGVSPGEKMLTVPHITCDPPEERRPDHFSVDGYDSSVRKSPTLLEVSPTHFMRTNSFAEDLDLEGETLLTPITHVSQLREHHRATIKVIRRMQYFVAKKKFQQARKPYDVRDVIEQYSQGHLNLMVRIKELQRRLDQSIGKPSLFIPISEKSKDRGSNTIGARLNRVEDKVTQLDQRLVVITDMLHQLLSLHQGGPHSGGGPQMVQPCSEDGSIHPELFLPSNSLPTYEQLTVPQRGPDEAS
Conditions: Balser et al, 1991

C=C[C@H]1C[N@@]2CC[C@H]1C[C@@H]2[C@@H](O)c1ccnc2ccc(OC)cc12 [Quinidine]
block of IKs: 40-50%
